Assays:
Test in all cases: NanoBRET CELLinib128
Assay type in all cases: binding
LATS1 = target: T1, LATS1 (Homo sapiens, UniProt O95835); details: 100% no effect, 0% complete tracer displacement, read-out: Tracer bound
T1 construct: Full-length kinase ORF (Promega, Madison, WI, USA) cloned in frame with a NanoLuc-vector was transfected into HEK293T cells; host or cells: HEK293T
Protocol: (§1) To get an impression about the binding strength of the PROTAC MA191 and the reference inhibitor MA68 to other kinases besides FLT3-ITD the binding on a kinase panel of further 128 representative protein kinases at 1 μM concentration was tested using the NanoBRET^TM cellular target engagement assay (CELLinib128 assay, CELLinib GmbH, Frankfurt, Germany). […] In none of the 128 kinases MA191 was able to displace the tracer (inhibitor) used by more than 50%, Table S1, Supplementary Information).
(§2) The CELLinib128 assay was performed by CELLinib GmbH, Frankfurt (Germany) as described previously. In brief: Full-length kinase ORF (Promega, Madison, WI, USA) cloned in frame with a NanoLuc-vector was transfected into HEK293T cells in Opti-MEM without phenol red (Life Technologies, Carlsbad, CA, USA) at a density of 2 × 10^5 cells/mL using FuGENE HD (Promega, E2312) and proteins were allowed to express for 20 h. For CDKs, where indicated below, an excess of an activator without an NLuc-fusion was cotransfected. […] The system was allowed to equilibrate at 37 °C for 2 h and 5% CO2 prior to BRET measurements. For PKCs, a chemical activator PMA was added in a final concentration of 1 µM was added together with test compounds and tracers (Promega, V1171). To measure BRET, NanoBRET^TM NanoGlo substrate + extracellular NanoLuc inhibitor (Promega, N2160) were added as per the manufacturer’s protocol, and filtered luminescence was measured (450 nm BP filter (donor) and 610 nm LP filter (acceptor)). For the 1-shot test compounds, data were normalized to the tracer control and the background control or control compound plateau and an average and SD were calculated. […] For the control compounds competitive displacement data were normalized to the tracer Ctrl and the background Ctrl and then plotted and fitted using GraphPad Prism 10 software using a normalized 3-parameter curve fit with the following equation: Y = 100/(1 + 10^X−LogIC50).

TYK2 = target: T2, TYK2 (Homo sapiens, UniProt P29597); details: 1 µM; 100% no effect, 0% complete tracer displacement
T2 construct: Full-length kinase ORF (Promega, Madison, WI, USA) cloned in frame with a NanoLuc-vector; host or cells: HEK293T
Protocol: as §1, §2

MAP4K5 = target: T3, MAP4K5 (Homo sapiens, UniProt Q9Y4K4); details: 100% no effect, 0% complete tracer displacement, read-out: Tracer bound
T3 construct: Full-length kinase ORF (Promega, Madison, WI, USA) cloned in frame with a NanoLuc-vector was transfected into HEK293T cells; host or cells: HEK293T
Protocol: as §1, §2

PRKCE-PMA = target: T4, PRKCE-PMA (Homo sapiens, UniProt Q02156); details: 100% no effect, 0% complete tracer displacement, read-out: Tracer bound
T4 construct: Full-length kinase ORF (Promega, Madison, WI, USA) cloned in frame with a NanoLuc-vector was transfected into HEK293T cells; host or cells: HEK293T
T4 sequence (Q02156 whole entry): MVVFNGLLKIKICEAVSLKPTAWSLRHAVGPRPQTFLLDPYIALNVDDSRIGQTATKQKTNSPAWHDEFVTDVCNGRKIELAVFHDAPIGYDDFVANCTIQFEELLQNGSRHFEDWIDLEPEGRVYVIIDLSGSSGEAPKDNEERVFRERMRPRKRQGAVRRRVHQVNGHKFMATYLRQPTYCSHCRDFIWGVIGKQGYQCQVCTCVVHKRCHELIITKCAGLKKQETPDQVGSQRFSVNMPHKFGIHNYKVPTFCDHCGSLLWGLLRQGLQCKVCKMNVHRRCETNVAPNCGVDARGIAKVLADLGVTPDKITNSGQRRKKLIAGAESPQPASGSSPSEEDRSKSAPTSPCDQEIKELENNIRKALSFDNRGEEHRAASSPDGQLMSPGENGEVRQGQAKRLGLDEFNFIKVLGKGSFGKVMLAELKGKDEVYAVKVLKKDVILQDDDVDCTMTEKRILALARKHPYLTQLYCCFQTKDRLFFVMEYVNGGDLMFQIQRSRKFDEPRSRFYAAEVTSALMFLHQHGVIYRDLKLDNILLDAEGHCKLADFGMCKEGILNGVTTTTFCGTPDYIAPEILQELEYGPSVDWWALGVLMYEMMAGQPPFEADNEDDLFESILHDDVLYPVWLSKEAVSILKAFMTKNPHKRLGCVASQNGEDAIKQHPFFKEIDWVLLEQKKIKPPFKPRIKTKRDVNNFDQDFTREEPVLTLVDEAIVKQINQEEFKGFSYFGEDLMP
Protocol: as §1, §2

TEK = target: T5, TEK (Homo sapiens, UniProt Q02763); details: 100% no effect, 0% complete tracer displacement, read-out: Tracer bound
T5 construct: Full-length kinase ORF (Promega, Madison, WI, USA) cloned in frame with a NanoLuc-vector was transfected into HEK293T cells; host or cells: HEK293T
Protocol: as §1, §2

EPHA6 = target: T6, EPHA6 (Homo sapiens, UniProt Q9UF33); details: 100% no effect, 0% complete tracer displacement, read-out: Tracer bound
T6 construct: Full-length kinase ORF (Promega, Madison, WI, USA) cloned in frame with a NanoLuc-vector was transfected into HEK293T cells; host or cells: HEK293T
T6 sequence (Q9UF33 23-1036): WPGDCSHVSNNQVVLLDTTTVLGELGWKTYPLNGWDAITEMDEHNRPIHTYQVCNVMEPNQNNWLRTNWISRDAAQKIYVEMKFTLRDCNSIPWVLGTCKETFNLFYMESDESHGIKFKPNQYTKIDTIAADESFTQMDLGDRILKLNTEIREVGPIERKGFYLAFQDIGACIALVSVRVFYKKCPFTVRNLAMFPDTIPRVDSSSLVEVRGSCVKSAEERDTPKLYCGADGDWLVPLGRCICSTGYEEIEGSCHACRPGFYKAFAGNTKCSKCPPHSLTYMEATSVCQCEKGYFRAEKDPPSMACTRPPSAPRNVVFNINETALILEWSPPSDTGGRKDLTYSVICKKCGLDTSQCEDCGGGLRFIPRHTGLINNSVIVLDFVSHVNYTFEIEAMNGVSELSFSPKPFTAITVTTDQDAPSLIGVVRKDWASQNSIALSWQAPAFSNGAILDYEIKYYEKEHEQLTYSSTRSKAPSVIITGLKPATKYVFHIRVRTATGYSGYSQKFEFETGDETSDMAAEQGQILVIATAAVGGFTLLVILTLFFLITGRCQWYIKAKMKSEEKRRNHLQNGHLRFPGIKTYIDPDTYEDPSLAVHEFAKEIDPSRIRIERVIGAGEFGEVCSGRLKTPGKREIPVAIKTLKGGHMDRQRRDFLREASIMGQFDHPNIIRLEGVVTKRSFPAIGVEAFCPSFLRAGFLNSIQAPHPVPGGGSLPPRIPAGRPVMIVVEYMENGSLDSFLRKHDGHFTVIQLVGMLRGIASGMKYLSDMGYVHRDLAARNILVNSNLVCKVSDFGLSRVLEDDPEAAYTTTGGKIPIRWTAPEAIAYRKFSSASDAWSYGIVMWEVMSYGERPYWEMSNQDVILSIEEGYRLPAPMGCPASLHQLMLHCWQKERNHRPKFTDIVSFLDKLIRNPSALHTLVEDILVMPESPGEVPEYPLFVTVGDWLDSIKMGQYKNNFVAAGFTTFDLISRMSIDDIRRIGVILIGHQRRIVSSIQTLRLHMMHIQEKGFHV
Protocol: as §1, §2

SIK1 = target: T7, SIK1 (Homo sapiens, UniProt P57059); details: 1 µM; 100% no effect, 0% complete tracer displacement
T7 construct: Full-length kinase ORF (Promega, Madison, WI, USA) cloned in frame with a NanoLuc-vector was transfected into HEK293T cells; host or cells: HEK293T
Protocol: as §1, §2

PRKACB = target: T8, PRKACB (Homo sapiens, UniProt P22694); details: 100% no effect, 0% complete tracer displacement, read-out: Tracer bound
T8 construct: Full-length kinase ORF (Promega, Madison, WI, USA) cloned in frame with a NanoLuc-vector was transfected into HEK293T cells; host or cells: HEK293T
Protocol: as §1, §2

PAK6 = target: T9, PAK6 (Homo sapiens, UniProt Q9NQU5); details: 100% no effect, 0% complete tracer displacement, read-out: Tracer bound
T9 construct: Full-length kinase ORF (Promega, Madison, WI, USA) cloned in frame with a NanoLuc-vector was transfected into HEK293T cells; host or cells: HEK293T
Protocol: as §1, §2

LIMK2 = target: T10, LIMK2 (Homo sapiens, UniProt P53671); details: 100% no effect, 0% complete tracer displacement, read-out: Tracer bound
T10 construct: Full-length kinase ORF (Promega, Madison, WI, USA) cloned in frame with a NanoLuc-vector was transfected into HEK293T cells; host or cells: HEK293T
Protocol: as §1, §2

CDK3-CCNE1 = target: T11, CDK3-CCNE1 (Homo sapiens, UniProt Q00526); details: 1 µM; 100% no effect, 0% complete tracer displacement
T11 construct: Full-length kinase ORF (Promega, Madison, WI, USA) cloned in frame with a NanoLuc-vector was transfected into HEK293T cells; host or cells: HEK293T
Protocol: as §1, §2

STK36 = target: T12, STK36 (Homo sapiens, UniProt Q9NRP7); details: 100% no effect, 0% complete tracer displacement, read-out: Tracer bound
T12 construct: Full-length kinase ORF (Promega, Madison, WI, USA) cloned in frame with a NanoLuc-vector was transfected into HEK293T cells; host or cells: HEK293T
T12 sequence (Q9NRP7 whole entry): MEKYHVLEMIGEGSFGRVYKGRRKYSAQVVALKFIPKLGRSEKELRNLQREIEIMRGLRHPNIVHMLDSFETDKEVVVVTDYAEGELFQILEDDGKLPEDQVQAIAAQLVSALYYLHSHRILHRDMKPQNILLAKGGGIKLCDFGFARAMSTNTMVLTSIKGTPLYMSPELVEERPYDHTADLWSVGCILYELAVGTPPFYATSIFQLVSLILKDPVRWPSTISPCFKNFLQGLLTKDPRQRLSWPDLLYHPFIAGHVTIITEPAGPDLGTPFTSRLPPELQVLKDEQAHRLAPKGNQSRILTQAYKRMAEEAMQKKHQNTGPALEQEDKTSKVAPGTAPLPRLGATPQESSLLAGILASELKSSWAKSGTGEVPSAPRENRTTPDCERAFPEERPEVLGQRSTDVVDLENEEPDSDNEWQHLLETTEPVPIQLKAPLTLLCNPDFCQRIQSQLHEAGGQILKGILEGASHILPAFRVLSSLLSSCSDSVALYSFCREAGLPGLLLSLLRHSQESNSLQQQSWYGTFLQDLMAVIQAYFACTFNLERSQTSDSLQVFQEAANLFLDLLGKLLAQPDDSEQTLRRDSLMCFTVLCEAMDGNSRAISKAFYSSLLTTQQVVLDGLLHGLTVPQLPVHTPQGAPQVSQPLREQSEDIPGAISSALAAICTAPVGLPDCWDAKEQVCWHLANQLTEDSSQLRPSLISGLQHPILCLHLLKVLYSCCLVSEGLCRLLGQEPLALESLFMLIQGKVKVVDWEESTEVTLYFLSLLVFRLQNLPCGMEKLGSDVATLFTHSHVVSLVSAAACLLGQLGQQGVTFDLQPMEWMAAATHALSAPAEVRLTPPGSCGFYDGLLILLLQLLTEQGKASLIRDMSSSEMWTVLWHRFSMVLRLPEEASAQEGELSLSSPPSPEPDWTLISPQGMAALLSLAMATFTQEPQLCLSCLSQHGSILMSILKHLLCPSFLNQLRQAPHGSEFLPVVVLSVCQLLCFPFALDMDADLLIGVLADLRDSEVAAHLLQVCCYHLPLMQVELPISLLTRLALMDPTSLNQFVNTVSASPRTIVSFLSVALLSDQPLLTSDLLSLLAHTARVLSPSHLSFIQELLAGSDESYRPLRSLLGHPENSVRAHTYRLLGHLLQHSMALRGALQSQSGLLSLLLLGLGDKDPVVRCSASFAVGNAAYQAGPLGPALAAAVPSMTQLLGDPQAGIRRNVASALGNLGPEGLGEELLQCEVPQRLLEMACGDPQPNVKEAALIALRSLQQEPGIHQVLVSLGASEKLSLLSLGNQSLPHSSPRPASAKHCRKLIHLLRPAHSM
Protocol: as §1, §2

CDK18-CCNY = target: T13, CDK18-CCNY (Homo sapiens, UniProt Q07002); details: 100% no effect, 0% complete tracer displacement, read-out: Tracer bound
T13 construct: Full-length kinase ORF (Promega, Madison, WI, USA) cloned in frame with a NanoLuc-vector was transfected into HEK293T cells; host or cells: HEK293T
Protocol: as §1, §2

STK35 = target: T14, STK35 (Homo sapiens, UniProt Q8TDR2); details: 100% no effect, 0% complete tracer displacement, read-out: Tracer bound
T14 construct: Full-length kinase ORF (Promega, Madison, WI, USA) cloned in frame with a NanoLuc-vector was transfected into HEK293T cells; host or cells: HEK293T
Protocol: as §1, §2

MAP4K2 = target: T15, MAP4K2 (Homo sapiens, UniProt Q12851); details: 100% no effect, 0% complete tracer displacement, read-out: Tracer bound
T15 construct: Full-length kinase ORF (Promega, Madison, WI, USA) cloned in frame with a NanoLuc-vector was transfected into HEK293T cells; host or cells: HEK293T
Protocol: as §1, §2

STK38L = target: T16, STK38L (Homo sapiens, UniProt Q9Y2H1); details: 100% no effect, 0% complete tracer displacement, read-out: Tracer bound
T16 construct: Full-length kinase ORF (Promega, Madison, WI, USA) cloned in frame with a NanoLuc-vector was transfected into HEK293T cells; host or cells: HEK293T
Protocol: as §1, §2

RPS6KA2 = target: T17, RPS6KA2 (Homo sapiens, UniProt Q15349); details: 100% no effect, 0% complete tracer displacement, read-out: Tracer bound
T17 construct: Full-length kinase ORF (Promega, Madison, WI, USA) cloned in frame with a NanoLuc-vector was transfected into HEK293T cells; host or cells: HEK293T
Protocol: as §1, §2

IRAK4 = target: T18, IRAK4 (Homo sapiens, UniProt Q9NWZ3); details: 1 µM; 100% no effect, 0% complete tracer displacement
T18 construct: Full-length kinase ORF (Promega, Madison, WI, USA) cloned in frame with a NanoLuc-vector was transfected into HEK293T cells; host or cells: HEK293T
Protocol: as §1, §2

RPS6KA6 = target: T19, RPS6KA6 (Homo sapiens, UniProt Q9UK32); details: 1 µM; 100% no effect, 0% complete tracer displacement
T19 construct: Full-length kinase ORF (Promega, Madison, WI, USA) cloned in frame with a NanoLuc-vector was transfected into HEK293T cells; host or cells: HEK293T
Protocol: as §1, §2

MAP3K11 = target: T20, MAP3K11 (Homo sapiens, UniProt Q16584); details: 1 µM; 100% no effect, 0% complete tracer displacement
T20 construct: Full-length kinase ORF (Promega, Madison, WI, USA) cloned in frame with a NanoLuc-vector was transfected into HEK293T cells; host or cells: HEK293T
Protocol: as §1, §2

CDK4-CCND3 = target: T21, CDK4-CCND3 (Homo sapiens, UniProt P11802); details: 100% no effect, 0% complete tracer displacement, read-out: Tracer bound
T21 construct: Full-length kinase ORF (Promega, Madison, WI, USA) cloned in frame with a NanoLuc-vector was transfected into HEK293T cells; host or cells: HEK293T
Protocol: as §1, §2

MAP4K3 = target: T22, MAP4K3 (Homo sapiens, UniProt Q8IVH8); details: 1 µM; 100% no effect, 0% complete tracer displacement
T22 construct: Full-length kinase ORF (Promega, Madison, WI, USA) cloned in frame with a NanoLuc-vector was transfected into HEK293T cells; host or cells: HEK293T
T22 sequence (Q8IVH8 whole entry): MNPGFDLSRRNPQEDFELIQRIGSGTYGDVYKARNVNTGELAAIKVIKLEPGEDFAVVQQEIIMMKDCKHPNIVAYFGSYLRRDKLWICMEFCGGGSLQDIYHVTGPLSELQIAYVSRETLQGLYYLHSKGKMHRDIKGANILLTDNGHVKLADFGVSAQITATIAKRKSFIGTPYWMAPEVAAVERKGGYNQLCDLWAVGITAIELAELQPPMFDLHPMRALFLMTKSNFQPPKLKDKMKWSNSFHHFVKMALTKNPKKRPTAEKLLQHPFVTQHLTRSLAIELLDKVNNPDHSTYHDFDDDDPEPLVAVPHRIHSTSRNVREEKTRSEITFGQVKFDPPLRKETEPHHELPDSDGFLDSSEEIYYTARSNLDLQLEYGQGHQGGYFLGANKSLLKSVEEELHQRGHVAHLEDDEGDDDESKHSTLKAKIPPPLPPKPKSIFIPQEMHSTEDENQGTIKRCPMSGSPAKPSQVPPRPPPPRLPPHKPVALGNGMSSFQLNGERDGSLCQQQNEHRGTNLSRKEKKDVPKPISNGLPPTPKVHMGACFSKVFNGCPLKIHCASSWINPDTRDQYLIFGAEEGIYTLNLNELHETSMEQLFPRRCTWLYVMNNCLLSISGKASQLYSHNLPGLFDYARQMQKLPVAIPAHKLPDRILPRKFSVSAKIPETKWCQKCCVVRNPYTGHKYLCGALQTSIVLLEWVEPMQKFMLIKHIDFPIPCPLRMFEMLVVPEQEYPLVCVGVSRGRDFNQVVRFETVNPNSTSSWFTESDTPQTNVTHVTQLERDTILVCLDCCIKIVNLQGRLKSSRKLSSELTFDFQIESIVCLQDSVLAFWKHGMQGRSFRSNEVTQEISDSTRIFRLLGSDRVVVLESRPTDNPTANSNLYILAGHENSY
Protocol: as §1, §2

IRAK3 = target: T23, IRAK3 (Homo sapiens, UniProt Q9Y616); details: 100% no effect, 0% complete tracer displacement, read-out: Tracer bound
T23 construct: Full-length kinase ORF (Promega, Madison, WI, USA) cloned in frame with a NanoLuc-vector was transfected into HEK293T cells; host or cells: HEK293T
Protocol: as §1, §2

RET = target: T24, RET (Homo sapiens, UniProt P07949); details: 100% no effect, 0% complete tracer displacement, read-out: Tracer bound
T24 construct: Full-length kinase ORF (Promega, Madison, WI, USA) cloned in frame with a NanoLuc-vector was transfected into HEK293T cells; host or cells: HEK293T
T24 sequence (P07949 29-1114): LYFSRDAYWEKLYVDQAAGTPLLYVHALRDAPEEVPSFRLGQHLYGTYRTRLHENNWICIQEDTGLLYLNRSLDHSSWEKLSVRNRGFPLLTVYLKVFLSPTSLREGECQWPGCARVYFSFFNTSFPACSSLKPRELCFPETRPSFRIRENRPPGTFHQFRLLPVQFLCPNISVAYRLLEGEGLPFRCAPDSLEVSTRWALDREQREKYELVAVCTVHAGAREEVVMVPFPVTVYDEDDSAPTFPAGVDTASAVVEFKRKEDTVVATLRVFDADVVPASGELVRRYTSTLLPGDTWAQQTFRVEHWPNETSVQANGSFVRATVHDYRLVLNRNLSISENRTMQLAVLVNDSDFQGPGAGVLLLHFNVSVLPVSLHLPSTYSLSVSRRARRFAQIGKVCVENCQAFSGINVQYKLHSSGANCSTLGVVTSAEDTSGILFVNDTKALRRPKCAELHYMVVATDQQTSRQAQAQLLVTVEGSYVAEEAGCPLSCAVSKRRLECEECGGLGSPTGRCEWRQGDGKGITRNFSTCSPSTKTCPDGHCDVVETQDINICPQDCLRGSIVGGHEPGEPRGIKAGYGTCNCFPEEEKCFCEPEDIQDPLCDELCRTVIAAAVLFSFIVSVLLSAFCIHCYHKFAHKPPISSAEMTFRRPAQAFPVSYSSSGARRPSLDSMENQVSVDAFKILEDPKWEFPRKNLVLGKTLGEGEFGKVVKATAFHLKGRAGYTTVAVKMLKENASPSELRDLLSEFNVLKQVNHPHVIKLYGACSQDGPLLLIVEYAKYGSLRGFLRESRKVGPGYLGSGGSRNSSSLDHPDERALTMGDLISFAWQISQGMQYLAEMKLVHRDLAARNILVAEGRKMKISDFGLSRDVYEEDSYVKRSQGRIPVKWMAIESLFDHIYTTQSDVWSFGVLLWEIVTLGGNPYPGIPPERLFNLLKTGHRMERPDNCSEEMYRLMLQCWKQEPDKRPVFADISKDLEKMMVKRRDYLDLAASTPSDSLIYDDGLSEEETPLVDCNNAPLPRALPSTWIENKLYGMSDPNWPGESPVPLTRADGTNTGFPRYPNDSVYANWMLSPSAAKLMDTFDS
Protocol: as §1, §2

TBK1 = target: T25, TBK1 (Homo sapiens, UniProt Q9UHD2); details: 100% no effect, 0% complete tracer displacement, read-out: Tracer bound
T25 construct: Full-length kinase ORF (Promega, Madison, WI, USA) cloned in frame with a NanoLuc-vector was transfected into HEK293T cells; host or cells: HEK293T
Protocol: as §1, §2

AURKA = target: T26, AURKA (Homo sapiens, UniProt O14965); details: 100% no effect, 0% complete tracer displacement, read-out: Tracer bound
T26 construct: Full-length kinase ORF (Promega, Madison, WI, USA) cloned in frame with a NanoLuc-vector was transfected into HEK293T cells; host or cells: HEK293T
Protocol: as §1, §2

PTK2 = target: T27, PTK2 (Homo sapiens, UniProt Q05397); details: 100% no effect, 0% complete tracer displacement, read-out: Tracer bound
T27 construct: Full-length kinase ORF (Promega, Madison, WI, USA) cloned in frame with a NanoLuc-vector was transfected into HEK293T cells; host or cells: HEK293T
Protocol: as §1, §2

FGFR4 = target: T28, FGFR4 (Homo sapiens, UniProt P22455); details: 100% no effect, 0% complete tracer displacement, read-out: Tracer bound
T28 construct: Full-length kinase ORF (Promega, Madison, WI, USA) cloned in frame with a NanoLuc-vector was transfected into HEK293T cells; host or cells: HEK293T
Protocol: as §1, §2

CHEK2 = target: T29, CHEK2 (Homo sapiens, UniProt O96017); details: 100% no effect, 0% complete tracer displacement, read-out: Tracer bound
T29 construct: Full-length kinase ORF (Promega, Madison, WI, USA) cloned in frame with a NanoLuc-vector was transfected into HEK293T cells; host or cells: HEK293T
Protocol: as §1, §2

ERN1 = target: T30, ERN1 (Homo sapiens, UniProt O75460); details: 100% no effect, 0% complete tracer displacement, read-out: Tracer bound
T30 construct: Full-length kinase ORF (Promega, Madison, WI, USA) cloned in frame with a NanoLuc-vector was transfected into HEK293T cells; host or cells: HEK293T
Protocol: as §1, §2

## Cc1ncsc1-c1ccc([C@H](C)NC(=O)[C@@H]2C[C@@H](O)CN2C(=O)[C@@H](NC(=O)[C@H]2CC[C@H](C(=O)N3CCN(CCNC(=O)c4cc(Oc5ccc(NC(=O)Nc6cc(C(C)(C)C)on6)cc5)ccn4)CC3)CC2)C(C)(C)C)cc1 [MA191, 4-(4-(3-(5-(tert-Butyl)isoxazol-3-yl)ureido)phenoxy)-N-(2-(4-(trans-4-(((S)-1-((2S,4R)-4-hydroxy-2-(((S)-1-(4-(4-methylthiazol-5-yl)phenyl)ethyl)carbamoyl)pyrrolidin-1-yl)-3,3-dimethyl-1-oxobutan-2-yl)carbamoyl)cyclohexanecarbonyl)piperazin-1-yl)ethyl)picolinamide]
LATS1
  remaining activity at 1 µM: 97.8%
TYK2
  Tracer bound: 105.6%
MAP4K5
  remaining activity at 1 µM: 94%
PRKCE-PMA
  remaining activity at 1 µM: 78.3%
TEK
  remaining activity at 1 µM: 85.7%
EPHA6
  remaining activity at 1 µM: 82.5%
SIK1
  Tracer bound: 115.0%
PRKACB
  remaining activity at 1 µM: 106%
PAK6
  remaining activity at 1 µM: 120%
LIMK2
  remaining activity at 1 µM: 105%
CDK3-CCNE1
  Tracer bound: 117.0%
STK36
  remaining activity at 1 µM: 119%
CDK18-CCNY
  remaining activity at 1 µM: 95.9%
STK35
  remaining activity at 1 µM: 95.8%
MAP4K2
  remaining activity at 1 µM: 107%
STK38L
  remaining activity at 1 µM: 90%
RPS6KA2
  remaining activity at 1 µM: 114%
IRAK4
  Tracer bound: 114.7%
RPS6KA6
  Tracer bound: 107.5%
MAP3K11
  Tracer bound: 108.2%
CDK4-CCND3
  remaining activity at 1 µM: 105%
MAP4K3
  Tracer bound: 91.1%
IRAK3
  remaining activity at 1 µM: 115%
RET
  remaining activity at 1 µM: 83.5%
TBK1
  remaining activity at 1 µM: 108%
AURKA
  remaining activity at 1 µM: 120%
PTK2
  remaining activity at 1 µM: 113%
FGFR4
  remaining activity at 1 µM: 92.7%
CHEK2
  remaining activity at 1 µM: 111%
ERN1
  remaining activity at 1 µM: 116%

Reference: PMC13210772, “Dual FLT3/MAPK14 Proteolysis-Targeting Chimera (PROTAC) Induces Potent Acute Myeloid Leukemia Cell Death” (Pharmaceuticals, 2026)
